Laboratory results as given in patent publication US20110045101A1, “FUNGICIDAL SUBSTITUTED AZOLES” (E.I. Du Pont De Nemours and Company, priority 2009, published 2011).
Marks after values point to notes of the source that are not given here.

Assays:
Assay type in all cases: in vivo
Conditions in all cases: 100 = 100% disease control
Botrytis cinerea = experiment: Test C: tomato Botrytis on tomato seedlings, sprayed the day before inoculation, visual disease rating
Procedure, shortened: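 Disease scored by eye on tomato seedlings inoculated with Botrytis cinerea a day after treatment. Treatment was a run-off spray at 200 ppm (equivalent to 500 g/ha), or 40 ppm where marked, in acetone/water carrying 250 ppm Trem 014.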

Alternaria solani = experiment: Test D: tomato early blight, sprayed the day before inoculation, visual disease rating
Procedure, shortened: (§1)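 Ratings reflect a 200 ppm spray (≈500 g/ha) unless marked as 40 ppm. Plants were sprayed to run-off. The spray suspension was acetone/purified water 50/50 containing 250 ppm Trem 014, after first dissolving compound in acetone at 3% of final volume.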

Septoria nodorum = experiment: Test F: wheat glume blotch on wheat seedlings, sprayed the day before inoculation, visual disease rating
Procedure, shortened: as §1

Septoria tritici = experiment: Test G: wheat leaf blotch on wheat seedlings, sprayed the day before inoculation, visual disease rating
Procedure, shortened: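 Compounds dissolved in acetone (3% of final volume), then suspended in 50/50 acetone/water with 250 ppm Trem® 014 and sprayed to run-off on seedlings at 200 ppm (≈500 g/ha) or 40 ppm where marked. Inoculation with spores followed next day; visual rating after 48 h saturated at 24° C plus 19 days at 20° C.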

[1] = test system: Puccinia recondita f. sp. tritici; experiment: Test I: wheat leaf rust on wheat seedlings, sprayed the day before inoculation, visual disease rating
Procedure, shortened: as §1

[2] = test system: Erysiphe graminis f. sp. tritici; experiment: Test J: wheat powdery mildew on wheat seedlings, sprayed the day before inoculation, visual disease rating
Procedure, shortened: as §1

[3] = 40 ppm (marked *), 0 = no control
[4] = 200 ppm, 0 = no control relative to controls

## Fc1cccc(F)c1-n1cnc(Cl)c1-c1ccc(Cl)cc1 [compound 163]
Botrytis cinerea; [3]
  Test C disease control rating: 0* %
Alternaria solani; [3]
  Test D disease control rating: 0* %
Septoria nodorum; [3]
  Test F disease control rating: 0* %
Septoria tritici; [3]
  Test G disease control rating: 10* %
[1]; [3]
  Test I disease control rating: 0* %
[2]; [3]
  Test J disease control rating: 0* %

## Cc1ccc(-n2c(C)nc(Cl)c2-c2c(F)cccc2F)cc1F [compound 175]
Botrytis cinerea; 200 ppm, 0 = no control
  Test C disease control rating: 97%
Alternaria solani; 200 ppm, 0 = no control
  Test D disease control rating: 97%
Septoria nodorum; 200 ppm, 0 = no control
  Test F disease control rating: 82%
Septoria tritici; 200 ppm, 0 = no control
  Test G disease control rating: 98%
[1]; 200 ppm, 0 = no control
  Test I disease control rating: 100%
[2]; 200 ppm, 0 = no control
  Test J disease control rating: 99%

## Cc1nn(C)c(-c2c(F)cccc2Cl)c1-c1cccc(F)c1 [compound 62]
Botrytis cinerea; [4]
  Test C disease control rating: 94%
Alternaria solani; [4]
  Test D disease control rating: 0%
Septoria nodorum; [4]
  Test F disease control rating: 0%
Septoria tritici; [4]
  Test G disease control rating: 5%
[1]; [4]
  Test I disease control rating: 0%
[2]; [4]
  Test J disease control rating: 81%

## Cc1nc(Cl)c(-c2c(F)cccc2Cl)n1-c1ccc(Cl)cc1 [compound 53]
Botrytis cinerea; [4]
  Test C disease control rating: 89%
Alternaria solani; [4]
  Test D disease control rating: 100%
Septoria nodorum; [4]
  Test F disease control rating: 0%
Septoria tritici; [4]
  Test G disease control rating: 95%
[1]; [4]
  Test I disease control rating: 100%
[2]; [4]
  Test J disease control rating: 99%

## CCOc1cc(F)c(-c2c(Cl)nc(C)n2-c2ccc(Cl)cc2)c(F)c1 [compound 156]
Botrytis cinerea; [3]
  Test C disease control rating: 98* %
Alternaria solani; [3]
  Test D disease control rating: 100* %
Septoria nodorum; [3]
  Test F disease control rating: 99* %
Septoria tritici; [3]
  Test G disease control rating: 97* %
[1]; [3]
  Test I disease control rating: 97* %
[2]; [3]
  Test J disease control rating: 99* %

## Cc1ccc(F)c(-c2c(Cl)ncn2-c2ccc(Cl)cc2)c1F [compound 97]
Botrytis cinerea; [4]
  Test C disease control rating: 94%
Alternaria solani; [4]
  Test D disease control rating: 97%
Septoria nodorum; [4]
  Test F disease control rating: 0%
Septoria tritici; [4]
  Test G disease control rating: 95%
[1]; [4]
  Test I disease control rating: 91%
[2]; [4]
  Test J disease control rating: 99%

## Cc1nn(C)c(-c2c(F)cccc2Cl)c1-c1ccc(Cl)c(F)c1 [compound 63]
Botrytis cinerea; [4]
  Test C disease control rating: 0%
Alternaria solani; [4]
  Test D disease control rating: 0%
Septoria nodorum; [4]
  Test F disease control rating: 0%
Septoria tritici; [4]
  Test G disease control rating: 33%
[1]; [4]
  Test I disease control rating: 41%
[2]; [4]
  Test J disease control rating: 100%

## Cc1ccc(-n2c(Cl)nc(Cl)c2-c2c(F)ccc(F)c2F)cc1 [compound 130]
Botrytis cinerea; [4]
  Test C disease control rating: 98%
Alternaria solani; [4]
  Test D disease control rating: 100%
Septoria nodorum; [4]
  Test F disease control rating: 0%
Septoria tritici; [4]
  Test G disease control rating: 85%
[1]; [4]
  Test I disease control rating: 99%
[2]; [4]
  Test J disease control rating: 96%

## Cc1nc(Cl)c(-c2c(F)ccc(F)c2Cl)n1-c1ccc(Cl)c(F)c1 [compound 237]
Botrytis cinerea; 200 ppm, 0 = no control
  Test C disease control rating: 100%
Alternaria solani; 200 ppm, 0 = no control
  Test D disease control rating: 100%
Septoria nodorum; 200 ppm, 0 = no control
  Test F disease control rating: 100%
Septoria tritici; 200 ppm, 0 = no control
  Test G disease control rating: 98%
[1]; 200 ppm, 0 = no control
  Test I disease control rating: 100%
[2]; 200 ppm, 0 = no control
  Test J disease control rating: 100%

## Cc1ccc(-n2c(Cl)nc(Cl)c2-c2c(F)ccc(F)c2F)cc1C [compound 226]
Botrytis cinerea; 200 ppm, 0 = no control
  Test C disease control rating: 76%
Alternaria solani; 200 ppm, 0 = no control
  Test D disease control rating: 67%
Septoria nodorum; 200 ppm, 0 = no control
  Test F disease control rating: 0%
Septoria tritici; 200 ppm, 0 = no control
  Test G disease control rating: 88%
[1]; 200 ppm, 0 = no control
  Test I disease control rating: 0%
[2]; 200 ppm, 0 = no control
  Test J disease control rating: 95%

## C#Cc1nc(Cl)c(-c2c(F)cccc2F)n1-c1cccc(F)c1 [Compound 47, 4-chloro-5-(2,6-difluorophenyl)-2-ethynyl-1-(3-fluorophenyl)-1H-imidazole]
Botrytis cinerea; Botrytis cinerea, 120 h, 200 ppm, 0 = no control relative to controls
  pest or weed control at 200 ppm: 94%
Alternaria solani; Alternaria solani, 168 h, 200 ppm, 0 = no control relative to controls
  pest or weed control at 200 ppm: 42%
Septoria nodorum; Parastagonospora nodorum, 264 h, 200 ppm, 0 = no control relative to controls
  pest or weed control at 200 ppm: 0%
Septoria tritici; Zymoseptoria tritici, 504 h, 200 ppm, 0 = no control relative to controls
  pest or weed control at 200 ppm: 77%
[1]; Puccinia recondita, 168 h, 200 ppm, 0 = no control relative to controls
  pest or weed control at 200 ppm: 54%
[2]; Blumeria graminis, 168 h, 200 ppm, 0 = no control relative to controls
  pest or weed control at 200 ppm: 93%

## Cc1nc(Cl)c(-c2c(F)cccc2F)n1-c1ccc(F)c(F)c1 [compound 174]
Botrytis cinerea; 200 ppm, 0 = no control
  Test C disease control rating: 98%
Alternaria solani; 200 ppm, 0 = no control
  Test D disease control rating: 99%
Septoria nodorum; 200 ppm, 0 = no control
  Test F disease control rating: 82%
Septoria tritici; 200 ppm, 0 = no control
  Test G disease control rating: 98%
[1]; 200 ppm, 0 = no control
  Test I disease control rating: 100%
[2]; 200 ppm, 0 = no control
  Test J disease control rating: 100%

## COc1cc(F)c(-c2c(Br)nc(OC)n2-c2ccc(Cl)cc2)c(F)c1 [compound 96]
Botrytis cinerea; 40 ppm (marked *)
  Test C disease control rating: 98* %
Alternaria solani; 40 ppm (marked *)
  Test D disease control rating: 100* %
Septoria nodorum; 40 ppm (marked *)
  Test F disease control rating: 97* %
Septoria tritici; 40 ppm (marked *)
  Test G disease control rating: 97* %
[1]; 40 ppm (marked *)
  Test I disease control rating: 97* %
[2]; 40 ppm (marked *)
  Test J disease control rating: 99* %

## Fc1cc(-n2c(Cl)nc(Cl)c2-c2cccnc2Cl)ccc1Cl [compound 458]
Botrytis cinerea; [4]
  Test C disease control rating: 96%
Alternaria solani; [4]
  Test D disease control rating: 16%
Septoria nodorum; [4]
  Test F disease control rating: 0%
Septoria tritici; [4]
  Test G disease control rating: 92%
[1]; [4]
  Test I disease control rating: 95%
[2]; [4]
  Test J disease control rating: 89%

## Fc1cc(-n2c(Br)nc(Cl)c2-c2c(F)ccc(F)c2F)ccc1Cl [compound 143]
Botrytis cinerea; [4]
  Test C disease control rating: 99%
Alternaria solani; [4]
  Test D disease control rating: 100%
Septoria nodorum; [4]
  Test F disease control rating: 100%
Septoria tritici; [4]
  Test G disease control rating: 100%
[1]; [4]
  Test I disease control rating: 100%
[2]; [4]
  Test J disease control rating: 100%

## Cn1nc(Br)c(-c2c(F)cc(F)cc2F)c1-c1ccc(Cl)cc1 [compound 166]
Botrytis cinerea; 200 ppm, 0 = no control
  Test C disease control rating: 96%
Alternaria solani; 200 ppm, 0 = no control
  Test D disease control rating: 97%
Septoria nodorum; 200 ppm, 0 = no control
  Test F disease control rating: 40%
Septoria tritici; 200 ppm, 0 = no control
  Test G disease control rating: 96%
[1]; 200 ppm, 0 = no control
  Test I disease control rating: 91%
[2]; 200 ppm, 0 = no control
  Test J disease control rating: 100%

## Cc1nc(Cl)c(-c2c(F)cccc2F)n1-c1ccccc1F [compound 64]
Botrytis cinerea; [4]
  Test C disease control rating: 99%
Alternaria solani; [4]
  Test D disease control rating: 100%
Septoria nodorum; [4]
  Test F disease control rating: 95%
Septoria tritici; [4]
  Test G disease control rating: 95%
[1]; [4]
  Test I disease control rating: 100%
[2]; [4]
  Test J disease control rating: 96%

## COc1cc(F)c(-c2c(C)ncn2-c2ccc(Cl)cc2)c(F)c1 [compound 56]
Botrytis cinerea; 40 ppm (marked *)
  Test C disease control rating: 96* %
Alternaria solani; 40 ppm (marked *)
  Test D disease control rating: 100* %
Septoria nodorum; 40 ppm (marked *)
  Test F disease control rating: 60* %
Septoria tritici; 40 ppm (marked *)
  Test G disease control rating: 96* %
[1]; 40 ppm (marked *)
  Test I disease control rating: 94* %
[2]; [4]
  Test J disease control rating: 99%
